The subject of experiment [1] is phosphorylation of FLT3 and its down-stream effector STAT5. Briefly: Western blotting of p-FLT3 and p-STAT5 in MV4-11 cells. Conditions: Homo sapiens; at 30 nM treatment, 3 hours, FLT3-ITD positive MV4-11 leukemia cells; read-out: inhibition activity against phosphorylation of FLT3 and its down-stream effector STAT5. The format is cell-based. The gist of the method: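 MV4-11 cells held overnight in IMDM with 0.1% FBS, then 3 million cells treated with compound for 3 h. Whole lysates immunoblotted for p-FLT3 (Tyr-591), p-STAT5 (Tyr-694) and actin. Band intensities at 30 nM compared to DMSO control; % inhibition = (1 − relative intensity) × 100.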
(Immunoblotting shows a protein as a band on a membrane.)

For experiment [2], the system named is THP-1 human acute monocytic leukemia cell with NRAS G12D mutation. Briefly: THP-1 cell proliferation assay (counter screen). The format is cell-based. The note with it: Homo sapiens, THP-1 cells, 72 hours treatment, CellTiter96, read-out: anti-proliferation activity THP-1 NRAS N12D, IC50 ranking. The essentials: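 Viability measured as 490 nm absorbance after 2–4 h with CellTiter96 AQueous One reagent, following 72 h treatment with rising compound concentrations. THP-1 cells, 5000/well, grown in RPMI 1640 with 10% FBS and 0.05 mM 2-mercaptoethanol at 37° C, 5% CO2, plated overnight before dosing.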
For orientation: A counterscreen serves to expose hits that act by an unwanted route or on another target.

A further experiment deals with T1, FLT3-D835Y mutant kinase (Homo sapiens, UniProt P36888, D835Y).
T1 construct: purchased SignalChem
T1 sequence (P36888 27-993 D835Y): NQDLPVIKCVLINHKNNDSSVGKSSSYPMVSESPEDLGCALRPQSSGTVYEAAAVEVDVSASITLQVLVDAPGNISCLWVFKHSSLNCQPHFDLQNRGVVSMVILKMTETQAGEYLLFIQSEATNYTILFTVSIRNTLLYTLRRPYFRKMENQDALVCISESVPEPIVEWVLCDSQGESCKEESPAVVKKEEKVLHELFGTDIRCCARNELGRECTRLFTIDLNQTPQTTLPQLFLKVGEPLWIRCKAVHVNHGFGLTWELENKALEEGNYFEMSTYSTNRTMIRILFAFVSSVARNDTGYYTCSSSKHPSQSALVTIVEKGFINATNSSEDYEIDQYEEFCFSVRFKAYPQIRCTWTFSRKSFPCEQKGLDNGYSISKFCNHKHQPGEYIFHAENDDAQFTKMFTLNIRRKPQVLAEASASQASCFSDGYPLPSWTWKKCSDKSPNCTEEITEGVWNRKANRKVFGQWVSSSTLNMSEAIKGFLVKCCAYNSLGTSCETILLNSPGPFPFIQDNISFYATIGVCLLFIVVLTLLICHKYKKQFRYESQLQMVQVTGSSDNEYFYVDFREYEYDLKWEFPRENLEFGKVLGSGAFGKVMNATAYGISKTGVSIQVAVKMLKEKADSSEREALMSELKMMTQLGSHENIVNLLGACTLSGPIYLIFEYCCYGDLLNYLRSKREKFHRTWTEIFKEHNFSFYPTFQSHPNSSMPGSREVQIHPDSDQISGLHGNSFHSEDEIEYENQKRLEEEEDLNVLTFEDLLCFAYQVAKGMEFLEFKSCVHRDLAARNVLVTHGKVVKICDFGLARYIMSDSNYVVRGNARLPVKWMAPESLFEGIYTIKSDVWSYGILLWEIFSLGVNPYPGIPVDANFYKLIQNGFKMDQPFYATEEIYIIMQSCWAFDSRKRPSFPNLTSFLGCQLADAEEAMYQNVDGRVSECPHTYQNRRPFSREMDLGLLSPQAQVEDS
Kind of experiment: FLT3-D835Y mutant kinase assay (AlphaScreen). In kind it is biochemical. The note with it: read-out: Ranking of IC50 values, FLT3-D835Y. The essentials: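 AlphaScreen readout of biotin-poly(Glu4:Tyr1) phosphorylation by 1 ng recombinant FLT3-D835Y. Conditions were 10 μM ATP, 10 mM MgCl2, MOPS pH 7.0, 30 min at 30 °C, EDTA stop. Compounds were serially diluted in duplicate to derive IC50.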
(In Alpha technology, singlet oxygen from a donor bead excites a nearby acceptor bead.)

As for `CN(C)Cc1ccc(-c2cc3c(s2)Cc2c(-c4ccc5cnn(C)c5c4)n[nH]c2-3)cc1` [Compound 94, N,N-dimethyl-1-(4-(3-(1-methyl-1H-indazol-6-yl)-1,4-dihydrothieno [2′,3′:4,5]cyclopenta [1,2-c]pyrazol-6-yl)phenyl)methanamine], the inhibition (commonly how much of the control response was suppressed) at 0.03 µM in experiment [1] was over 50%. Also, the values for the IC50 (in experiment [2]; on FLT3-D835Y mutant kinase) were 1000 to 10000 nM and 1 to 10 nM, respectively.

For the compound `CN1CCN(Cc2ccc(-c3cc4c(s3)Cc3c(-c5ccc6cnn(C)c6c5)n[nH]c3-4)cc2)CC1` [Compound 84, 3-(1-methyl-1H-indazol-6-yl)-6-(4-((4-methylpiperazin-1-yl)methyl)phenyl)-1,4-dihydrothieno [2′,3′:4,5]cyclopenta [1,2-c]pyrazole], in experiment [1], the inhibition at 0.03 µM was over 50%. Further, the IC50 is over 10000 nM in experiment [2] and under 1 nM at FLT3-D835Y mutant kinase.

Take `Cn1nnc2ccc(-c3n[nH]c4c3Cc3sc(-c5ccc(CN6CCOCC6)cc5)cc3-4)cc21` [Compound 89, 4-(4-(3-(1-methyl-1H-benzo[d][1,2,3]triazol-6-yl)-1,4-dihydrothieno [2′,3′:4,5]cyclopenta [1,2-c]pyrazol-6-yl)benzyl)morpholine]: the inhibition at 0.03 µM in experiment [1] is over 50%. The IC50 in experiment [2] is over 10000 nM; on FLT3-D835Y mutant kinase, 1 to 10 nM.
